Measured values: patent US20120214847A1, “2-[1-PHENYL-5-HYDROXY-4a-SUBSTITUTED-HEXAHYDROCYCLOPENTA[F]INDAZOL-5-YL]ETHYL PHENYL DERIVATIVES AS GLUCOCORTICOID RECEPTOR LIGANDS” (Merck Sharp & Dohme Corp., priority 2009, published 2012)

Target: T1, human GR (Homo sapiens, UniProt P04150)
T1 construct: naturally expresses the human GR; endogenous in cells
T1 sequence (P04150 1-777): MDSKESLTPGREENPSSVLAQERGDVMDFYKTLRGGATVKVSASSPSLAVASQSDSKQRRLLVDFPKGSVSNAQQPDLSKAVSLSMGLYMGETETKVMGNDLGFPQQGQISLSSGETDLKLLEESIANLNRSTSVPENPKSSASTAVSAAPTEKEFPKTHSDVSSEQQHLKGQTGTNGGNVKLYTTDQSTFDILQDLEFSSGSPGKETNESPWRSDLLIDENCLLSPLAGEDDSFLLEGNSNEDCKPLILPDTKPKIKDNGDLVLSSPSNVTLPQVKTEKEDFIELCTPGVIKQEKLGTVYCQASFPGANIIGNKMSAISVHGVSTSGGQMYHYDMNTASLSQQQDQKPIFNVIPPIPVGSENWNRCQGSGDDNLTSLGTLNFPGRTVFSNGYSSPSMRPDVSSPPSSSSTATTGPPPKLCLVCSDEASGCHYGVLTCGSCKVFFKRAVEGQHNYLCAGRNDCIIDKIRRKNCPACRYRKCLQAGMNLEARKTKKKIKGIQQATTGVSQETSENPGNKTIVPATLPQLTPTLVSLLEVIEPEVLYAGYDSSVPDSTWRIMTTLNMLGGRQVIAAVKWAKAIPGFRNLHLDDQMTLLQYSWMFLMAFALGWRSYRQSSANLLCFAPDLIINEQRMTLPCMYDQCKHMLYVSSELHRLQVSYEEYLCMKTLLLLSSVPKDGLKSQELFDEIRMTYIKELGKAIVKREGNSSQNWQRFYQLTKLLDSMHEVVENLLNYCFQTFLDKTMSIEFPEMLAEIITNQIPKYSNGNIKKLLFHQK
Experiment: Transrepression assay (GITAR), TNFα-β-lactamase reporter in U937 cells
Type: cell-based
Conditions: for EC50 / Transrepression U937 Cells GITAR Emax (%): U937 cells; for EC50: IP = inflection point; for Transrepression U937 Cells GITAR Emax (%) / Emax: activity repressed by 100 nM dexamethasone alone set as 100%; for Emax: U-937, U937 cells
Method in brief: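 U937 cells stably carrying TNFα promoter–β-lactamase, endogenous GR, preincubated with compound 30–45 min at 37° C., then stimulated with 5 ng/ml PMA plus 100 ng/ml LPS for ~18 h. CCF2-AM read-out; repression by 100 nM dexamethasone set as 100%.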

CC[C@]12Cc3cnn(-c4ccccc4)c3C=C1CC[C@@]2(O)CC(O)c1ccccn1 (single isomer, unassigned) [Example 82a]
EC50: 217 nM
Transrepression U937 Cells GITAR Emax (%): 54%

OC(C[C@]1(O)CCC2=Cc3c(cnn3-c3ccc(F)cc3)C[C@@]21C1CC1)c1ccc(F)cn1 (single isomer, unassigned) [Example 79b]
EC50: 282 nM
Transrepression U937 Cells GITAR Emax (%): 54%

OCc1ccccc1CC[C@]1(O)CCC2=Cc3c(cnn3-c3ccc(F)cc3)C[C@@]21C1CC1 [Example 2, (4aR,5R)-4a-Cyclopropyl-1-(4-fluorophenyl)-5-{2-[2-(hydroxymethyl)phenyl]ethyl}-1,4,4a,5,6,7-hexahydrocyclopenta[f]indazol-5-ol]
EC50: 8 nM
Emax: 79%

CC[C@]12Cc3cnn(-c4ccc(F)cc4)c3C=C1CC[C@@]2(O)CCc1ncccc1S(C)(=O)=O [Example 80, (4aS,5R)-4a-Ethyl-1-(4-fluorophenyl)-5-{2-[3-(methylsulfonyl)pyridin-2-yl]ethyl}-1,4,4a,5,6,7-hexahydrocyclopenta[f]indazol-5-ol]
EC50: 56 nM
Emax: 70%

CC[C@]12Cc3cnn(-c4ccccc4)c3C=C1CC[C@@]2(O)CC(O)c1ccccn1 (single isomer, unassigned) [Example 82b]
EC50: 277 nM
Transrepression U937 Cells GITAR Emax (%): 44%

NC(=O)C(O)c1ccccc1CC[C@]1(O)CCC2=Cc3c(cnn3-c3ccc(F)cc3)C[C@@]21C1CC1 (single isomer, unassigned) [Example 3a]
EC50: 85 nM
Transrepression U937 Cells GITAR Emax (%): 72%

CC[C@]12Cc3cnn(-c4ccccc4)c3C=C1CC[C@@]2(O)CCc1ncccc1S(=O)(=O)C(C)C [Example 81, (4aS,5R)-4a-Ethyl-5-{2-[3-(iso-propylsulfonyl)pyridin-2-yl]ethyl}-1-phenyl-1,4,4a,5,6,7-hexahydrocyclopenta[f]indazol-5-ol]
EC50: 53 nM
Emax: 68%
